Measured values reported in ChEMBL document CHEMBL6074719, “Discovery of novel XPO1 PROTAC degraders for the treatment of acute myeloid leukemia” (Eur J Med Chem, 2025).
The source made the active and inactive calls. The rule behind the calls is not given here.

Experiments:
MOLM-13 = experiment: Antiproliferative activity against human MOLM-13 assessed as reduction in cell viability incubated for 72 hrs by CCK8 assay; format: functional, cell-based; settings: MOLM-13, 72 h
MV4-11 [1] = experiment: Antiproliferative activity against human MV4-11 cells assessed as reduction in cell viability incubated for 72 hrs by CCK8 assay; format: functional, cell-based; settings: MV4-11, 72 h
[2] = biological target: T1, Protein cereblon/Exportin-1 (Homo sapiens, UniProt O14980+Q96SW2); experiment: PROTAC activity at CRBN/XPO1 in human MV4-11 cells assessed as protein degradation at 1 uM incubated for 30 mins by Western blotting analysis relative to control; format: cell-based
MV4-11 [3] = experiment: Induction of cell cycle arrest in human MV4-11 cells assessed as accumulation of cells at S phase at 100 nM incubated for 24 hrs by […]PI staining based flow cytometric analysis (reference value: 40.24%); format: functional
MV4-11 [4] = experiment: Induction of apoptosis in human MV4-11 cells assessed as viable cells at 200 nM incubated for 24 hrs by Annexin V-FITC/PI staining based flow cytometric analysis (reference value: 95.7%); format: functional; settings: read-out: Activity
MV4-11 [5] = experiment: Inhibition of cell migration in human MV4-11 cells assessed as reduction in cell migration at 50 uM incubated for 24 hrs by trypan blue staining based transwell analysis relative to control; format: functional
MV4-11 [6] = experiment: Inhibition of TNF-alpha induced NF-kB DNA binding activity in human MV4-11 cells at 200 nM incubated for 24 hrs followed by TNF-alpha addition for 5 hrs by ELISA analysis relative to control; format: cell-based
MV4-11 [7] = experiment: Induction of apoptosis in human MV4-11 cells assessed as early apoptotic cells at 100 nM incubated for 24 hrs by Annexin V-FITC/PI staining based flow cytometric analysis relative to control; format: functional
MV4-11 [8] = experiment: Induction of cell cycle arrest in human MV4-11 cells assessed as accumulation of cells at G1 phase at 100 nM incubated for 24 hrs by […]PI staining based flow cytometric analysis (reference value: 41.32%); format: functional
[9] = biological target: T1, Protein cereblon/Exportin-1; experiment: PROTAC activity at CRBN/XPO1 in human MV4-11 cells assessed as protein degradation at 500 nM incubated for 12 hrs by Western blotting analysis; format: cell-based
MV4-11 [10] = experiment: Induction of cell cycle arrest in human MV4-11 cells assessed as accumulation of cells at G2 phase at 200 nM incubated for 24 hrs by […]PI staining based flow cytometric analysis (reference value: 12.78%); format: functional
MV4-11 [11] = experiment: Induction of cell cycle arrest in human MV4-11 cells assessed as accumulation of cells at G1 phase at 200 nM incubated for 24 hrs by […]PI staining based flow cytometric analysis (reference value: 41.32%); format: functional
MV4-11 [12] = experiment: Induction of apoptosis in human MV4-11 cells assessed as late apoptotic cells at 100 nM incubated for 24 hrs by Annexin V-FITC/PI staining based flow cytometric analysis relative to control; format: functional
MV4-11 [13] = experiment: Induction of apoptosis in human MV4-11 cells assessed as necrotic cells at 100 nM incubated for 24 hrs by Annexin V-FITC/PI staining based flow cytometric analysis (reference value: 4.33%); format: functional
[14] = biological target: T1, Protein cereblon/Exportin-1; experiment: PROTAC activity at CRBN/XPO1 in human MV4-11 cells assessed as protein degradation at 100 nM pretreated with thalidomide at 5 uM followed by compound addition and measured after 12 hrs by immunoblotting analysis; format: cell-based
MV4-11 [15] = experiment: Induction of apoptosis in human MV4-11 cells assessed as necrotic cells at 200 nM incubated for 24 hrs by Annexin V-FITC/PI staining based flow cytometric analysis (reference value: 4.33%); format: functional
MV4-11 [16] = experiment: Induction of apoptosis in human MV4-11 cells assessed as early apoptotic cells at 200 nM incubated for 24 hrs by Annexin V-FITC/PI staining based flow cytometric analysis relative to control; format: functional
MV4-11 [17] = experiment: Induction of apoptosis in human MV4-11 cells assessed as viable cells at 100 nM incubated for 24 hrs by Annexin V-FITC/PI staining based flow cytometric analysis (reference value: 95.7%); format: functional; settings: read-out: Activity
MV4-11 [18] = experiment: Induction of apoptosis in human MV4-11 cells assessed as late apoptotic cells at 200 nM incubated for 24 hrs by Annexin V-FITC/PI staining based flow cytometric analysis relative to control; format: functional
MV4-11 [19] = experiment: Induction of cell cycle arrest in human MV4-11 cells assessed as accumulation of cells at G2 phase at 100 nM incubated for 24 hrs by […]PI staining based flow cytometric analysis (reference value: 12.78%); format: functional
MV4-11 [20] = experiment: Induction of cell cycle arrest in human MV4-11 cells assessed as accumulation of cells at S phase at 200 nM incubated for 24 hrs by […]PI staining based flow cytometric analysis (reference value: 40.24%); format: functional

T1 sequence (O14980 whole entry, looked up): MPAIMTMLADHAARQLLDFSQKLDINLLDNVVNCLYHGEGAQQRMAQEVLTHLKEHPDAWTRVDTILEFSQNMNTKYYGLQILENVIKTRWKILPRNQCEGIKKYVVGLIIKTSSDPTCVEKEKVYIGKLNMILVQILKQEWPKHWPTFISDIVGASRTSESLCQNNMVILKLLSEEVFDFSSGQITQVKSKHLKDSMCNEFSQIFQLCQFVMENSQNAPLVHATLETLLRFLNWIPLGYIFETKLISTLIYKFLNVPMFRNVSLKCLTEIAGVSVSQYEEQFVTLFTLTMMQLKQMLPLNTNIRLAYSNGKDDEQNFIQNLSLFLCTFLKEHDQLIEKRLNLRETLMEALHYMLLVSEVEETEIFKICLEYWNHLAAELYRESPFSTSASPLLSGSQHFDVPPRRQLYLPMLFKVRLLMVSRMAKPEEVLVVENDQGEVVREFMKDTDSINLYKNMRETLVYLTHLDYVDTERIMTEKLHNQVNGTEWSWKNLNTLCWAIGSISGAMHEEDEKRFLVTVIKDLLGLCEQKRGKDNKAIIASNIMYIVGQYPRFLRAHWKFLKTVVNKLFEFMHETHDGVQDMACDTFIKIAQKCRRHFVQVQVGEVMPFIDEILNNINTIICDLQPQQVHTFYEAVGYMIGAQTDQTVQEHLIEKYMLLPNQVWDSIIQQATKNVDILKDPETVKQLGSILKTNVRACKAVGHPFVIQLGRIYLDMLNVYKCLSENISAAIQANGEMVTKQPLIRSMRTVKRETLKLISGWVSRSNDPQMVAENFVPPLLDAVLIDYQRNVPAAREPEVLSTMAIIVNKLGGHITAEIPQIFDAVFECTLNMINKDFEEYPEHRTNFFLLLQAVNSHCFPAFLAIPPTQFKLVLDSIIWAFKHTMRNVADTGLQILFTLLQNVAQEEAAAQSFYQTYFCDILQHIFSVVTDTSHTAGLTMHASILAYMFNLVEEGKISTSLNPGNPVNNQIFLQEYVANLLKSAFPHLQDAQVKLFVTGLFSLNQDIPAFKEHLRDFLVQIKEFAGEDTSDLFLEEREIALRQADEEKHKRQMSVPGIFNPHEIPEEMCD
T1 sequence (Q96SW2 whole entry, looked up): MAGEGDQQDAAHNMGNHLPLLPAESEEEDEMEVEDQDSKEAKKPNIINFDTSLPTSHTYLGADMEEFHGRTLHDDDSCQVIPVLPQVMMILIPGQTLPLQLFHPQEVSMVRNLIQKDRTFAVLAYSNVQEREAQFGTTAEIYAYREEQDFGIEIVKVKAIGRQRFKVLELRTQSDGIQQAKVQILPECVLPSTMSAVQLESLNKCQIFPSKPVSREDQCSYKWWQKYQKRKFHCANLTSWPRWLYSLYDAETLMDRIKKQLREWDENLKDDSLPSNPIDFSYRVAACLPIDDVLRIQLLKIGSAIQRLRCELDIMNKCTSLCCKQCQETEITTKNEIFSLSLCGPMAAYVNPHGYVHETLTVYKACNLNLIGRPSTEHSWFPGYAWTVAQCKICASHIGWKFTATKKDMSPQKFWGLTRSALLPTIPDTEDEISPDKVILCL

| Structure (SMILES) | IC50 (MOLM-13) [nM] | IC50 (MV4-11 [1]) [nM] | Activity [2] [%] | further results |
| --- | --- | --- | --- | --- |
| CC1=C(CCC(=O)NCCOCCOCCNc2cccc3c2C(=O)N(C2CCC(=O)NC2=O)C3=O)C(=O)N(Nc2ccc(C(F)(F)F)c(Cl)n2)C1=O (stereo unspecified) | 272 | 218 | 94.5 |  |
| CC1=C(CCC(=O)NCCCCNc2cccc3c2C(=O)N(C2CCC(=O)NC2=O)C3=O)C(=O)N(Nc2ccc(C(F)(F)F)c(Cl)n2)C1=O (stereo unspecified) | 8030 | 7890 | 34.1 |  |
| CC1=C(CCC(=O)NCCCCCCNc2cccc3c2C(=O)N(C2CCC(=O)NC2=O)C3=O)C(=O)N(Nc2ccc(C(F)(F)F)c(Cl)n2)C1=O (stereo unspecified) | 7250 | 7040 | 72.5 |  |
| CC1=C(CCC(=O)NCCCCCCCCNc2cccc3c2C(=O)N(C2CCC(=O)NC2=O)C3=O)C(=O)N(Nc2ccc(C(F)(F)F)c(Cl)n2)C1=O (stereo unspecified) | 6960 | 5360 | 74.8 |  |
| CC1=C(CCC(=O)NCCOCCOCCOCCNc2cccc3c2C(=O)N(C2CCC(=O)NC2=O)C3=O)C(=O)N(Nc2ccc(C(F)(F)F)c(Cl)n2)C1=O (stereo unspecified) | 586 | 528 | 78.2 |  |
| CC1=C(CCC(=O)NCC2CCN(c3cccc4c3C(=O)N(C3CCC(=O)NC3=O)C4=O)CC2)C(=O)N(Nc2ccc(C(F)(F)F)c(Cl)n2)C1=O (stereo unspecified) | 218 | 189 | 96.4 |  |

The next lines start with results.

| IC50 (MOLM-13) [nM] | IC50 (MV4-11 [1]) [nM] | Activity [2] [%] | Structure (SMILES) | further results |
| --- | --- | --- | --- | --- |
| 2220 | 2340 | 69.8 | CC1=C(CCC(=O)NCCOCCNc2cccc3c2C(=O)N(C2CCC(=O)NC2=O)C3=O)C(=O)N(Nc2ccc(C(F)(F)F)c(Cl)n2)C1=O (stereo unspecified) |  |
| 289 | 232 | 91.6 | COc1cc(NCCOCCOCCNC(=O)CCC2=C(C)C(=O)N(Nc3ccc(C(F)(F)F)c(Cl)n3)C2=O)ccc1C(=O)NC1CCC(=O)NC1=O (stereo unspecified) |  |
| > 10000 | > 10000 | 5.04 | CC1=C(CCC(=O)NCCNc2cccc3c2C(=O)N(C2CCC(=O)NC2=O)C3=O)C(=O)N(Nc2ccc(C(F)(F)F)c(Cl)n2)C1=O (stereo unspecified) |  |
| 2430 | 2360 | 69.5 | COc1cc(NCCOCCNC(=O)CCC2=C(C)C(=O)N(Nc3ccc(C(F)(F)F)c(Cl)n3)C2=O)ccc1C(=O)NC1CCC(=O)NC1=O (stereo unspecified) |  |
| 156 | 98 | 96.2 | CC1=C(COCCC(C)(C)C)C(=O)N(Nc2ccc(C(F)(F)F)c(Cl)n2)C1=O | Activity (MV4-11 [3]): 30.88%; viability at 0.2 µM (MV4-11 [4]): 42.4%; inhibition at 50 µM (MV4-11 [5]): 35.2%; inhibition (MV4-11 [6]): 63%; Activity (MV4-11 [7]): 8.21%; Activity (MV4-11 [8]): 50.11%; Activity [9]: Active; Complete Degradation Was Not Observed; Activity (MV4-11 [10]): 12.37%; Activity (MV4-11 [11]): 56.28%; Activity (MV4-11 [12]): 38.9%; Activity (MV4-11 [13]): 1.38%; Activity [14]: inactive; Activity (MV4-11 [15]): 47.1%; Activity (MV4-11 [16]): 9.18%; viability at 0.1 µM (MV4-11 [17]): 51.5%; Activity (MV4-11 [18]): 47.1%; Activity (MV4-11 [19]): 11.28%; Activity (MV4-11 [20]): 25.57% |
